Assay results as given in patent US4987258A, “4,4'-diaminodiphenyl compounds, process for their preparation and their use” (Hoechst Aktiengesellschaft, priority 1987, dated 1991).

System: Salmonella typhimurium (strains TA 98, TA 100, TA 1535, TA 1537, TA 1538)
Experiment: Ames mutagenicity test with Salmonella typhimurium in the absence and presence of S-9-mix
Assay type: cell-based
Settings: for Ames mutagenicity test: Examples 1-3
Experimental: The examples below will describe the invention in more detail. The mutagenicity test was carried out, following Ames, with Salmonella typhimurium (strains TA 98, TA 100, TA 1535, TA 1537, TA 1538) in the absence and presence of S-9-mix (B. N. Ames et al., Mut. Res. Vol. 31, p. 347-364 (1975)).

| Structure (SMILES) | Ames test | Ames mutagenicity test |
| --- | --- | --- |
| CC(C)Cc1cc(-c2ccc(N)c(CC(C)C)c2)ccc1N [Example 6] | negative | – |
| CCCOc1cc(-c2ccc(N)c(OCCC)c2)ccc1N [Example 8] | negative | – |
| CCCc1cc(-c2ccc(N)c(CCC)c2)ccc1N [Example 4] | negative | – |
| COCCOc1cc(-c2ccc(N)c(OCCOC)c2)ccc1N [Example 3, 3,3'-di(2-methoxyethoxy)-benzidine] | – | negative |
| CC(C)c1cc(-c2ccc(N)c(C(C)C)c2)ccc1N [Example 1, 3,3-diisopropylbenzidine dichlorohydrate] | – | negative |
| CCC(C)c1cc(-c2ccc(N)c(C(C)CC)c2)ccc1N (stereo not shown) | negative | – |
| CCC(C)Oc1cc(-c2ccc(N)c(OC(C)CC)c2)ccc1N (stereo not shown) [Example 10] | negative | – |
| CCCCc1cc(-c2ccc(N)c(CCCC)c2)ccc1N [Example 5] | negative | – |
| CC(C)Oc1cc(-c2ccc(N)c(OC(C)C)c2)ccc1N [Example 9] | negative | – |
| CC(C)COc1cc(-c2ccc(N)c(OCC(C)C)c2)ccc1N [Example 2, 3,3'-diisobutoxybenzidine] | – | negative |
